Source: ChEMBL document CHEMBL1201862, “PubChem BioAssay data set” (2004)
The source made the active and inactive calls.

Key:
[1] = HEK293T cytotoxicity, dose response, cytotoxicity control for miR-122 modulator project, cell-based, activator set, cherry-pick (AID 720690); type: functional;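 also: HEK293T human cells scored for general mammalian cytotoxicity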
[2] = target: T1, Voltage-gated N-type calcium channel alpha-1B subunit/Amyloid beta A4 precursor protein-binding family A member 1 (Homo sapiens, UniProt Q00975+Q02410); type: protein assay
[3] = target: T1, Voltage-gated N-type calcium channel alpha-1B subunit/Amyloid beta A4 precursor protein-binding family A member 1; type: protein assay; remark: listed apart in the source
Coagulation factor XII = target: T2, Coagulation factor XII (Homo sapiens, UniProt P00748); type: functional;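 also: activated factor XIIa alpha cleaving a fluorogenic AMC peptide substrate; inhibitor potency from loss of enzyme activity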
T2 sequence (P00748 whole entry): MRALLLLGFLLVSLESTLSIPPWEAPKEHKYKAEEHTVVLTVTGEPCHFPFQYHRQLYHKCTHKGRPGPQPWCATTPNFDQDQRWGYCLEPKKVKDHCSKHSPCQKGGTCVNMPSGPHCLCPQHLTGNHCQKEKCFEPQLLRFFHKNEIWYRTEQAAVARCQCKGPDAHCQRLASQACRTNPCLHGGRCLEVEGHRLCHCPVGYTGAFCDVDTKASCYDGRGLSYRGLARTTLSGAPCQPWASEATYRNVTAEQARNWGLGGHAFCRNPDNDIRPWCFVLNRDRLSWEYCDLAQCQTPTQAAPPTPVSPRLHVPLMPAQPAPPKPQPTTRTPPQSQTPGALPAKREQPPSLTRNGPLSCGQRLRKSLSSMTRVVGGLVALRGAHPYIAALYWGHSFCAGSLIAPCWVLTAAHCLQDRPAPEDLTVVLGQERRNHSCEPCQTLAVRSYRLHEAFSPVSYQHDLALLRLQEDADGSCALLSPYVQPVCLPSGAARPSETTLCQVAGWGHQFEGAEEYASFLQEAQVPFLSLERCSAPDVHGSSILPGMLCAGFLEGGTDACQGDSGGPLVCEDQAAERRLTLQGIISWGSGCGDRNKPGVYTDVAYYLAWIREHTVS

[4] = target: Voltage-dependent T-type calcium channel subunit alpha-1H (Homo sapiens, UniProt O95180); type: functional;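 also: channel activity triggered by adding a high calcium stimulation buffer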
[5] = A Cell Based Secondary Assay To Explore Cytotoxicity of Compounds that Sensitize Mycobacterium Tuberculosis to Beta-Lactam Antibiotics.; type: functional
[6] = growth suppression of PTEN-null colon cells, dose response, cell-based, HCT116 PTEN knockout (AID 1047); type: functional;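 also: HCT116 colon tumor cells with PTEN knocked out; cells exposed to compound for 60 hours before readout; potency for loss of cell viability measured by luminescence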
[7] = growth suppression of beta-catenin-knockout colon cells, dose response, cell-based, HCT116, human colon tumor (AID 1045); type: functional;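 also: HCT116 colon tumor cells with beta catenin knocked out; cells exposed to compound for 60 hours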
[8] = target: Eukaryotic translation initiation factor 4E (Mus musculus, UniProt P63073); experiment: eIF4E–eIF4G protein interaction inhibitors, dose response, biochemical, TR-FRET (AID 855); type: functional;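 also: potency for disrupting eIF4E binding to eIF4GI seen as loss of FRET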
H9c2 = experiment: cells; type: functional, cell-based; settings: Rattus norvegicus, H9c2, Myocardium;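 also: confirmatory concentration-response retest of ultra-high-throughput screening hits for modulation of myocardial damage; cell death induced by hydrogen peroxide oxidative stress; compound pretreatment for 60 min then peroxide exposure for 2 h; potency is for protecting the cells against peroxide damage rather than for killing them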
[9] = target: T3, Replicative DNA helicase DnaB (Mycobacterium tuberculosis, UniProt P9WMR3); experiment: DnaB intein splicing inhibitors, dose response, biochemical, cell-free fluorescence (AID 449749); type: functional
T3 sequence (P9WMR3 whole entry): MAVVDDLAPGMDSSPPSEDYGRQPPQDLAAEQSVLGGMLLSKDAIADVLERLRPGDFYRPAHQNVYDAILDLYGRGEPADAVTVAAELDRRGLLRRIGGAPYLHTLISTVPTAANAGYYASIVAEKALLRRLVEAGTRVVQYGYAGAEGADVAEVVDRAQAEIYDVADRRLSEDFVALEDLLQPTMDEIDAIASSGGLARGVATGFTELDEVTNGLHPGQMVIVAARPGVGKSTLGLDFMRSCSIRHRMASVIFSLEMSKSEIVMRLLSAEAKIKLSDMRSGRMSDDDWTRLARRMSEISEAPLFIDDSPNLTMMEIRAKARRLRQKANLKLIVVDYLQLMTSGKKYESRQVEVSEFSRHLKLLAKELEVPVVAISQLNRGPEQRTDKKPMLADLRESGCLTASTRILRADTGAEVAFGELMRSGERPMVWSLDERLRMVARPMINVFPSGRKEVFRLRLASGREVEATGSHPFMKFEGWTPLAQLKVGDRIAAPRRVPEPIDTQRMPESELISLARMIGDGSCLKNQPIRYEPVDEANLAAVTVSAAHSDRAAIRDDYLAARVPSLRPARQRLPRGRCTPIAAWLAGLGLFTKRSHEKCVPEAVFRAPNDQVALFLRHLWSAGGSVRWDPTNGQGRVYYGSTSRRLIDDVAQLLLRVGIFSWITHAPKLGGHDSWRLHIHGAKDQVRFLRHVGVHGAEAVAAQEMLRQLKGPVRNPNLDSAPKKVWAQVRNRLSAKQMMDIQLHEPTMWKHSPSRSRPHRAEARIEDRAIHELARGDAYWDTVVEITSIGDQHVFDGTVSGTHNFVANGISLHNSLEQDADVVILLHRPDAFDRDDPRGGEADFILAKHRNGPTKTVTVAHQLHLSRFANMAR

Protein RecA = target: T4, Protein RecA (Mycobacterium tuberculosis, UniProt P9WHJ3); experiment: Fluorescence Cell-Free Homogeneous Dose Retest to Identify Inhibitors of RecA-Intein Splicing Activity. [Related pubchem assays (depositor defined):AID2097, AID2223, AID489010, AID492950]; type: functional
T4 sequence (P9WHJ3 whole entry): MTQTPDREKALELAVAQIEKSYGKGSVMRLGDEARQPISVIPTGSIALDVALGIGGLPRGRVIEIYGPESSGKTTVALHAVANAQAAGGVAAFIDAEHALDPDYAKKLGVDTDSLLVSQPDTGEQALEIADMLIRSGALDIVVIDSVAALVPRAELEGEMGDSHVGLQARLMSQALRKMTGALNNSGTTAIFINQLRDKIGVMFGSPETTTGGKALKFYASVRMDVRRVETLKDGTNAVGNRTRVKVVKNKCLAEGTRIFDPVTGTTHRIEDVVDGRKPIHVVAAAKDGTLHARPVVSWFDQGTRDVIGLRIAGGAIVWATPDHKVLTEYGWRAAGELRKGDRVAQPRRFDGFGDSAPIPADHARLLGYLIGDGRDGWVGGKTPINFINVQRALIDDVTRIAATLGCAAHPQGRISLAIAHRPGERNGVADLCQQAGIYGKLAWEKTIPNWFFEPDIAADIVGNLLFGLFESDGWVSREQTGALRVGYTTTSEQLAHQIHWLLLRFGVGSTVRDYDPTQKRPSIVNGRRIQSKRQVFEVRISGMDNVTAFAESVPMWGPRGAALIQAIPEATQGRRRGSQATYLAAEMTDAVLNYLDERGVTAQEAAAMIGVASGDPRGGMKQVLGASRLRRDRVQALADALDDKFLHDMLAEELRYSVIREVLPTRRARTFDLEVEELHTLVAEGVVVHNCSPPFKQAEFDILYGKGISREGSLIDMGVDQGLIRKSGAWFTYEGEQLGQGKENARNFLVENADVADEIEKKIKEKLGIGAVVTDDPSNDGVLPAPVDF

Prothrombin = Prothrombin (Homo sapiens, UniProt P00734); experiment: Thrombin 1536 HTS Dose Response Confirmation. [Related pubchem assays: 1046 (Thrombin 1536 HTS; hits were confirmed in this assay)]; type: functional
Leucine aminopeptidase = target: T5, Leucine aminopeptidase (Plasmodium falciparum 3D7, UniProt Q8IL11); experiment: P. falciparum M17LAP inhibitors, primary screen, biochemical, fluorogenic H-Leu-NHMec substrate, 1536-well (AID 1619); type: functional
T5 sequence (Q8IL11 whole entry): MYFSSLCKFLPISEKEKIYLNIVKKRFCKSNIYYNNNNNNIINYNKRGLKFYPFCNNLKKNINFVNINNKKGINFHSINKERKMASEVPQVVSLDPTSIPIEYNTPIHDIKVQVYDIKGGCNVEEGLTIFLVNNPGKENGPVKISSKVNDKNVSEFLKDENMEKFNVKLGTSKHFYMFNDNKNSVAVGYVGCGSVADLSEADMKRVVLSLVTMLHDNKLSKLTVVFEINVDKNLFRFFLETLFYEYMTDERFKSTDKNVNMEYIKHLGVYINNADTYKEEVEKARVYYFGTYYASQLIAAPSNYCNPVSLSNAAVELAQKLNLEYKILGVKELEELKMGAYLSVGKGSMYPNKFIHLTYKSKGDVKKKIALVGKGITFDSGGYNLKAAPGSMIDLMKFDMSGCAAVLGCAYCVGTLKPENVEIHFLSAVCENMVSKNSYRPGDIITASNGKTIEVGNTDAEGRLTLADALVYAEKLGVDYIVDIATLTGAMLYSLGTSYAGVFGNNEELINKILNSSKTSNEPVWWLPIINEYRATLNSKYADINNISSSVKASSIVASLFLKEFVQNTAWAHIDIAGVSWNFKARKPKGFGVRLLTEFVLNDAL

[10] = miR-122 activators in hepatoma reporter cells, dose response, cell-based, Huh7 psiCHECK-miR122, Renilla luciferase, cherry-picked (AID 651956); type: functional;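 also: huh7 hepatoma cells stably carrying a psiCHECK-2 miR-122 sensor plasmid; renilla luciferase signal reporting endogenous miR-122 activity after 48 h compound exposure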
[11] = inhibitors of firefly luciferase expression or activity, dose response, H4 neuroglioma cells, luminescence (AID 1990); type: functional, cell-based
[12] = Luminescence Cell-Based Dose Response HTS to Identify Inhibitors of 5'UTR Stem-Loop Driven Prion Protein mRNA Translation in H4 Neuroglioblastoma Cells. [Related pubchem assays: 1827 (Project Summary), 1813 (Primary HTS)]; type: functional
[13] = inhibitors of SNCA 5'UTR-driven reporter translation, confirmation, H4 neuroglioma cells, luminescence (AID 1988); type: functional, cell-based
[14] = THP-1 cell cytotoxicity, dose response, cytotoxicity control for non-replicating M. tuberculosis project (AID 489025); type: functional
[15] = HepG2 cell cytotoxicity, dose response, cytotoxicity control for non-replicating M. tuberculosis project (AID 489018); type: functional; settings: Mycobacterium tuberculosis
cells = type: functional

Chain of Voltage-dependent T-type calcium channel subunit alpha-1H (O95180 whole entry): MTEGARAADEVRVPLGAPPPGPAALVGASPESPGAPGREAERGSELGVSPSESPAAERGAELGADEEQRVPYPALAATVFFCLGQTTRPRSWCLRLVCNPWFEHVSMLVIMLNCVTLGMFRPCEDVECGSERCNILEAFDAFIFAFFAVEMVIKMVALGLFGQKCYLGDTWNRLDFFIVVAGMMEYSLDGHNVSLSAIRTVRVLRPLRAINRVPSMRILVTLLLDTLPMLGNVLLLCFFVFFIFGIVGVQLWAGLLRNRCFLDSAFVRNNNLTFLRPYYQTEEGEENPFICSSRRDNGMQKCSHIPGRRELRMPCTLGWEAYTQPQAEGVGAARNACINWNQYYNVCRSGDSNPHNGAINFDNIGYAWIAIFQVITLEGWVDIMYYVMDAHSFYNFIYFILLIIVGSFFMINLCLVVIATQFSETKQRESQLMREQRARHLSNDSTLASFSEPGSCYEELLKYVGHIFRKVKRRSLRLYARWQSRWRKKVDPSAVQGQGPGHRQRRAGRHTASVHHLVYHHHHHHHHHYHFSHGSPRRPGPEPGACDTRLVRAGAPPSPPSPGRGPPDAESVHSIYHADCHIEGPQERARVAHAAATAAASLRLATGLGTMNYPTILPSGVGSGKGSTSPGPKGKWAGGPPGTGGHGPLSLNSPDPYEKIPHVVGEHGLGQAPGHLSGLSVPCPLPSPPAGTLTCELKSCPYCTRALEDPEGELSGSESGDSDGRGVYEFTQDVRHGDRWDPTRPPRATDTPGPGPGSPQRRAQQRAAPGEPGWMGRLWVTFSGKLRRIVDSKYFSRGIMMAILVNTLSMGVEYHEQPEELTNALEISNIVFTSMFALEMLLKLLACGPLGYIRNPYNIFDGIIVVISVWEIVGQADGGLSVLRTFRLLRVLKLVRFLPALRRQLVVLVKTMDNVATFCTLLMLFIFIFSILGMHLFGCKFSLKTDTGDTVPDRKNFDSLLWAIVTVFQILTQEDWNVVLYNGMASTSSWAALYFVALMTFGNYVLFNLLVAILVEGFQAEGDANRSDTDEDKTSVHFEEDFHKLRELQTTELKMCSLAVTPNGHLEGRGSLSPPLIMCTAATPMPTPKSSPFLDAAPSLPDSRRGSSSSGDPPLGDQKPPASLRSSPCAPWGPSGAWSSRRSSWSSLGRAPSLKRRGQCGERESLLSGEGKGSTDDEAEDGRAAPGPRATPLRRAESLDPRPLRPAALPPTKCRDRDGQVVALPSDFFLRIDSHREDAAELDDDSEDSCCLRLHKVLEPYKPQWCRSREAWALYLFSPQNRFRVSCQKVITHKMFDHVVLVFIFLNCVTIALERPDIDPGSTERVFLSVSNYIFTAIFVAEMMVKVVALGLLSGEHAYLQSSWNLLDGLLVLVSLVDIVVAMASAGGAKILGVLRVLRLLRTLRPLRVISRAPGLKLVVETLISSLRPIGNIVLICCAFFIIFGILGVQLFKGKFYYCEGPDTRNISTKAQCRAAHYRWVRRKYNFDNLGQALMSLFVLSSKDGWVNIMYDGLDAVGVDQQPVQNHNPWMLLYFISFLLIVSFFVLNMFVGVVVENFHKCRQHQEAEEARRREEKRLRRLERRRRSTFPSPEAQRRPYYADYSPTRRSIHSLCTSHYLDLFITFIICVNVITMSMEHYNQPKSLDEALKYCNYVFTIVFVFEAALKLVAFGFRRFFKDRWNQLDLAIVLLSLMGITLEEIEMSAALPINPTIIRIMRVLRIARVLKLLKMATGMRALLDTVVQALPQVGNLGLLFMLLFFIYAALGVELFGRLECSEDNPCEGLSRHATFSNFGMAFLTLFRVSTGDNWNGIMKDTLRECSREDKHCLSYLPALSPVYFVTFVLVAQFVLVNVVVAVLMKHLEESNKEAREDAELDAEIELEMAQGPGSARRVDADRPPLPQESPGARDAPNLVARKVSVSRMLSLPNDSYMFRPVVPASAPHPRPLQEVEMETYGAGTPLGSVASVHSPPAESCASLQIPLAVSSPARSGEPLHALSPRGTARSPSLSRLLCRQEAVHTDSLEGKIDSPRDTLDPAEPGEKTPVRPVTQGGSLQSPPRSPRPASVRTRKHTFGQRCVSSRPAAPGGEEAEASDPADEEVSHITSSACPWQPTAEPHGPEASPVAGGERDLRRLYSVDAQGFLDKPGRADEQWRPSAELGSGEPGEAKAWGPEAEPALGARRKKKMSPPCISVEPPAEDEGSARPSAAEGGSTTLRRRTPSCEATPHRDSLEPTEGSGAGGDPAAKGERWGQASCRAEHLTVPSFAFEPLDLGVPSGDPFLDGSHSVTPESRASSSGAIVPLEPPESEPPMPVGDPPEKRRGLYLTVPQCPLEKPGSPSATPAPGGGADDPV
Chain of Eukaryotic translation initiation factor 4E (P63073 whole entry): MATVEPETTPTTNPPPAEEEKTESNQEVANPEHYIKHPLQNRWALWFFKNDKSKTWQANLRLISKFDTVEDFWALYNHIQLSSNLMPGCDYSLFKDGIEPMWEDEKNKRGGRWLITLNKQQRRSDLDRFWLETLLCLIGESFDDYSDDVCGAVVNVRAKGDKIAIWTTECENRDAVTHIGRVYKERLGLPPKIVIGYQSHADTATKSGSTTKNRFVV

For `C[C@@H]1CN([C@@H](C)CO)C(=O)c2cccc(NC(=O)c3ccc(-c4nccs4)cc3)c2O[C@H]1CN(C)Cc1ccc2c(c1)OCO2`, the AC50 [1] was 25.6 µM (active).
For `Cc1cccc(NC(=S)NC2CCCC2)n1`, the IC50 [2] was 7.9 µM (active) and the IC50 [3] was > 50 µM (inactive).
In the case of `Fc1ccc(SCCc2ccccn2)cc1`, the IC50 (Coagulation factor XII) is reported as > 50 µM (inactive).
For `O=C(NCCc1csc(-c2ccc(C(F)(F)F)cc2)n1)c1cccs1`, the EC50 [4] was 4.14 µM (active).
For `CCOC(=O)c1c(NC(=S)NC(=O)c2ccc(Cn3cc(Cl)cn3)o2)sc2c1CCC(C)C2` (stereo not drawn), the CC50 [5] was 12.2 µM (active), the EC50 [6] was 5.87 µM (active) and the EC50 [7] was 6.18 µM (active).
With `O=C1CC(SCCc2nc3ccccc3[nH]2)C(=O)N1c1ccc(Cl)cc1` (stereo not drawn) the EC50 [4] was 613 µM (active).
With `Nc1ccc(S(=O)(=O)N2CCCc3ccccc32)cc1` the IC50 [8] was > 64 µM (inactive).
With `CCOC(=O)[C@H]1[C@H]2COc3ccc(Br)cc3[C@@H]2N2C(=O)c3cc(OC)c(OC)cc3NC(=O)[C@@]12C` the CC50 [5] was > 40 µM (active) and the IC50 (H9c2) was 15.5 µM (active).
With `CCCCCCCN(C(=O)CCl)c1ccccc1C` the CC50 [5] was 2.82 µM (active), the AC50 [9] was 7.86 µM (active) and the EC50 (Protein RecA) was 0.893 µM (active).
For `O=C1NC(=O)N(Cc2ccccc2)C(=O)/C1=C/c1cnn(-c2ccccc2)c1`, the IC50 [2] was 14.9 µM (active) and the IC50 [3] was > 50 µM (inactive).
For `Cc1ccc(C)c(S(=O)(=O)NCCCN2CCOCC2)c1`, the IC50 (Prothrombin) was > 50 µM (not active).
In the case of `Cc1ccc(C(=O)n2cnnc2N)cc1C`, the IC50 (Prothrombin) is reported as 1.87 µM (active).
In the case of `CCCOc1cccc(C(=O)N(Cc2ccco2)C2CCS(=O)(=O)C2)c1` (stereo not drawn), the IC50 (Prothrombin) is reported as > 50 µM (not active).
With `O=C(NC1CCCCC1)N(Cc1ccccc1)Cc1ccco1` the EC50 [4] was 3.68 µM (active).
For `CCCCCOC(=O)Nc1nnc(CCCCC)s1`, the IC50 (Coagulation factor XII) was > 50 µM (inactive).
In the case of `CCc1cccc(NC(=O)C[S+]([O-])Cc2nc(-c3ccc(C)cc3)oc2C)c1` (stereo not drawn), the EC50 [4] is reported as 3.17 µM (active).
With `CC1(C)C2CC=C(/C=N/n3cnnc3)C1C2` (stereo not drawn) the IC50 (Coagulation factor XII) was > 50 µM (inactive).
In the case of `Cc1ccc(S(=O)(=O)Nc2nc3c(s2)C(=O)CC(C)(C)C3)cc1`, the IC50 (Leucine aminopeptidase) is reported as 94.4 µM (active).
In the case of `COc1ccc(-c2nn(-c3ccccc3)cc2C(=O)Nc2nccs2)cc1OC`, the CC50 [5] is reported as 32 µM (active).
In the case of `COc1ccc(NC(=O)c2ccco2)cc1NC(=O)c1cccc(OC(C)C)c1`, the EC50 [4] is reported as 8.24 µM (active).
In the case of `C/C=C/c1ccc2c(c1)O[C@@H](CN(C)CC1CCCC1)[C@H](C)CN([C@@H](C)CO)S2(=O)=O`, the AC50 [10] is reported as 42.1 µM (active) and the AC50 [1] is reported as 22.4 µM (active).
With `CC(C)NC(=O)c1ccc(C(C)C)cc1` the IC50 (Prothrombin) was > 50 µM (not active).
In the case of `COc1ccc(CC(CC(=O)O)C(=O)Nc2ccccc2)cc1` (stereo not drawn), the IC50 (Leucine aminopeptidase) is reported as 47.2 µM (active).
For `O=C(NCc1ccco1)c1scc2c1OCCO2`, the IC50 (Coagulation factor XII) was > 50 µM (inactive).
For `CCCOc1ccc(CCC(=O)N/N=C/c2ccc([N+](=O)[O-])o2)cc1`, the EC50 [11] was > 120 µM (not active), the EC50 [12] was > 120 µM (not active) and the EC50 [13] was > 120 µM (not active). The CC50 [14] was 13.1 µM (active), the CC50 [15] was 19.3 µM (active) and the IC50 (cells) was 5.03 µM (active).
